Results published in paper PMC9760430, “A stapled chromogranin A-derived peptide homes in on tumors that express αvβ6 or αvβ8 integrins” (International Journal of Biological Sciences, 2023).
Peptide text beside a SMILES is read from it. * marks the point of attachment. X1 = CC1(C)C(/C=C/C2=C(Oc3ccc(S(=O)(=O)O)cc3)C(=C\C=C3/N(CCCCCC(=O)NCCN4C(=O)CC(*)C4=O)c4ccc(S(=O)(=O)O)cc4C3(C)C)/CCC2)=[N+](CCCCS(=O)(=O)O)c2ccc(S(=O)(=O)[O-])cc21

Target: T1, murine αvβ8 (Mus musculus, UniProt P43406+Q0VBD0)
T1 construct: purchased Bio-Techne
T1 sequence (P43406 31-988 limits assumed): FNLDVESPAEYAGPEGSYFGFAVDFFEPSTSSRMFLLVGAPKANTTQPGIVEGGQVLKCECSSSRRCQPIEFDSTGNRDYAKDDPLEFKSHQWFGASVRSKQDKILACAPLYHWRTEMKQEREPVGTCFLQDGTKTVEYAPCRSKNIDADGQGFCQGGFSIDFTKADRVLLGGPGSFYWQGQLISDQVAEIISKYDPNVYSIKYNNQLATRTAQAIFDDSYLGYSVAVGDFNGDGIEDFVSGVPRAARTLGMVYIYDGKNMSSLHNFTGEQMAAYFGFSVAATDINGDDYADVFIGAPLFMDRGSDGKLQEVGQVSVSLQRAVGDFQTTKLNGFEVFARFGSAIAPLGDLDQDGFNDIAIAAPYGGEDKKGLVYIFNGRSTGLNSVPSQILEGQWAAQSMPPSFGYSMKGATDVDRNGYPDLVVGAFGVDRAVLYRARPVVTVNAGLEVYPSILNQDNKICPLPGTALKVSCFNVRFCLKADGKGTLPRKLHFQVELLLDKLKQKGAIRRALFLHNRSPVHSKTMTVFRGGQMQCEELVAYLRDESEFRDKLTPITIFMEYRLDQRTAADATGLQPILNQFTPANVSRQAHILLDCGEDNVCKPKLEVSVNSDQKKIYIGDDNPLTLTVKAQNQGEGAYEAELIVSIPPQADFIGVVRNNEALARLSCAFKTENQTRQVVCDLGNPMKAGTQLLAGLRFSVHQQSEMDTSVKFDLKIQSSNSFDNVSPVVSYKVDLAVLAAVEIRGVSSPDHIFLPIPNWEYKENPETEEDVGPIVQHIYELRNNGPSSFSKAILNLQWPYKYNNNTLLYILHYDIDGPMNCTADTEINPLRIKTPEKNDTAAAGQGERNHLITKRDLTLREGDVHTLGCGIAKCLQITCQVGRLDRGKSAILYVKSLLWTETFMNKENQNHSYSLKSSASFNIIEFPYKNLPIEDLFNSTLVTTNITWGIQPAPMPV
T1 sequence (Q0VBD0 43-682 limits assumed): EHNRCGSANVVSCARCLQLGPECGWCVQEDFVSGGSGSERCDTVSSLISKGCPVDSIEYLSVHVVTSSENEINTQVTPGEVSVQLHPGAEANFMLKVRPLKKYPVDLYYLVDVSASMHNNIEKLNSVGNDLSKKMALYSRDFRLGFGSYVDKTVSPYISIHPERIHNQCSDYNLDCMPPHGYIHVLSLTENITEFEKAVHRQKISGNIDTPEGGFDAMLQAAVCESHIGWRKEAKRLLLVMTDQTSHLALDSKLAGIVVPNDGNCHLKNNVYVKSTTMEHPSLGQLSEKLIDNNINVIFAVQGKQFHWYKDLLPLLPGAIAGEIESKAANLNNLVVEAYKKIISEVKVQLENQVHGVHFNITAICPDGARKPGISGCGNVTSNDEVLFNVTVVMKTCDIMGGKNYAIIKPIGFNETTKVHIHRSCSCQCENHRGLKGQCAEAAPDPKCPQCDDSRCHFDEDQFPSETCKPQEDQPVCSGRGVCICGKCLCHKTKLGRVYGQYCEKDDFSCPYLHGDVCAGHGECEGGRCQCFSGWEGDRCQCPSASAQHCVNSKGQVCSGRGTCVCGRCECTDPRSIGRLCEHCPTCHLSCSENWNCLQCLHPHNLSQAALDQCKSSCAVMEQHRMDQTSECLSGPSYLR
Assay: direct integrin binding assay of peptide-IRDye conjugates, murine αvβ8-coated plates
Conditions: plates coated with recombinant murine αvβ8; conjugate 0.01-100 nM, 1 h; bound NIR fluorescence; mean ± SE, n = 3 experiments
Method: The affinity of peptide-IRDye conjugates for αvβ6 and αvβ8 integrins was determined by a direct binding assay using microtiter plates coated with αvβ6 or αvβ8 (Bio-Techne). After 1 h of incubation, the plates were washed; bound fluorescence was quantified by scanning the plates with an Odyssey CLx near-infrared fluorescence imaging system (LI-COR).
A control conjugate with a cysteine in place of the peptide was also prepared in parallel. […]
The simplified molecular-input line-entry system (SMILES) of 5a-, 2a-, Cys- and 5a-Scr- […]
The concentration of each conjugate was quantified by spectrophotometric analysis at 774 nm (molar absorption coefficient, 240,000 M-1, cm-1) (Figure S3B). The final yield of 5a-IRDye […]
Binding of peptide-IRDye conjugates to avb6 and avb8 integrin […]
conjugates were added to the microtiterplates and incubated at room temperature for 1 h (see Experimental Section). After washing, bound fluorescence was measured using an Odyssey CLx (LI-COR) scanner. Representative images of the scanned plates and quantification of binding are shown. […]

Row | EC50 [nM] | SMILES
1 | > 100 | CC[C@H](C)[C@H](NC(=O)[C@H](CCCNC(=N)N)NC(=O)[C@H](CCC(=O)O)NC(=O)[C@H](CCC(=O)O)NC(=O)CNC(=O)[C@H](CCCNC(=N)N)NC(=O)[C@H](CC(C)C)NC(=O)[C@@H](NC(=O)[C@H](CCC(=O)O)NC(=O)[C@H](Cc1ccccc1)NC(=O)[C@@H](N)CSC1CC(=O)N(CCNC(=O)CCCCCN2/C(=C\C=C3\CCCC(/C=C/C4=[N+](CCCCS(=O)(=O)O)c5ccc(S(=O)(=O)[O-])cc5C4(C)C)=C3Oc3ccc(S(=O)(=O)O)cc3)C(C)(C)c3cc(S(=O)(=O)O)ccc32)C1=O)[C@@H](C)O)C(=O)N[C@@H](CC(C)C)C(=O)N[C@@H](CO)C(=O)N[C@H](C(=O)N[C@@H](CC(C)C)C(=O)N[C@@H](CCCNC(=N)N)C(=O)N[C@@H](Cc1c[nH]cn1)C(=O)N[C@@H](CCC(N)=O)C(=O)N[C@@H](CC(N)=O)C(=O)N[C@@H](CC(C)C)C(=O)N[C@@H](CC(C)C)C(=O)N[C@@H](CCCCN)C(=O)N[C@@H](CCC(=O)O)C(=O)N[C@@H](CC(C)C)C(=O)N[C@@H](CCC(N)=O)C(=O)N[C@@H](CC(=O)O)C(N)=O)[C@@H](C)CC (some centres unmarked) [2a-IRDye] (H-C(X1)FETLRGEERILSILRHQNLLKELQD-NH2)
2 | > 100 | CC1(C)C(/C=C/C2=C(Oc3ccc(S(=O)(=O)O)cc3)C(=C\C=C3/N(CCCCCC(=O)NCCN4C(=O)CC(SC[C@H](N)C(=O)O)C4=O)c4ccc(S(=O)(=O)O)cc4C3(C)C)/CCC2)=[N+](CCCCS(=O)(=O)O)c2ccc(S(=O)(=O)[O-])cc21 (some centres unmarked) [Cys-IRDye]
